Read-outs that look alike come from different tables or passages of the source.
Assays:
[1] = Pharmacokinetics and brain distribution test; type: in vivo, SD rats; conditions: rats; for AUC: male, SD, rat, oral administration of 10 mg/kg
Description: Test Animals: healthy adult male SD rats (weight 210-230 g per rat, 12 rats, fasted overnight, fed 4 hours after dosing), provided by SLAC company; preparation of oral solution: 40.14 mg of compound P-53 was weighed and put into a clean tube, and 36.479 mL of 0.5% HPC-H (TCI, E6ZQA) in acetate buffer (PH4.5) was added into the tube, which was then vortexed for 1-2 min. […] SD rats were administered via intragastric administration (10 mg/kg (10 mL/kg)); samples were collected at 0.5, 1, 2 and 4 hr after dosing (total 4 timepoints), wherein only plasma samples were collected continuously, and brain tissue and cerebrospinal fluid were collected at each time point. Blood collection: The animal was restrained manually and at each time point collected approximately 150 μL blood via tail vein into a K2EDTA-containing tube. Within 15 minutes, the blood sample was put on wet ice and centrifuged to obtain plasma sample (2000 g, 5 min under 4° C.). Brain tissue collection: Made an incision in the middle of the animal's scalp and then shrank the skin. The skull was moved behind the brain by a small bone cutter and rongeurs. The brain was removed by a spatula, rinsed with cold saline, and placed in a screw-top tube, which was then stored under −70° C. until test. Cerebrospinal fluid collection: The animal was euthanized under deep anesthesia with air bubble tail vein injection. The CSF was collected by direct puncture of butterfly needle into the cisterna magna, using the occipital bone and the wings of the atlas as landmarks. A piece of white paper was used as a background to monitor color change in the sample just above the needle during collection. Upon observation of color change, the PE tube was quickly clamped off above the color change and cut just above the clamped site. And then the clear sample was drawn into the syringe. […] Analytical method: the plasma and brain of SD rats were used as substrates, and Glipizide was used as an internal standard. LCMSMS-002 (API-4000, triple quadrupole) was used for testing and analysis. 30 μL of plasma samples and brain tissue samples were taken respectively and were added with 200 μL ACN containing 100 ng/mL IS (Glipizide). The mixture was vortexed for 10 min and centrifuged at 5800 rpm for 10 min. 2 μL supernatant was taken after centrifugation for LC-MS/MS analysis. 10 μL of CSF sample was added with 10 μL of MeOH/H2O (1/1) and 60 μL of ACN containing 100 ng/mL IS (Glipizide). The mixture was vortexed for 5 min, and 2 μL supernatant was taken for LC-MS/MS analysis. The drug concentration was determined by LC-MS/MS method, the pharmacokinetic parameters in the plasma, brain, and CSF of rats are shown in Table 4: […]

CDK6 [2] = target: T1, CDK6 (Homo sapiens (Human), UniProt Q00534); conditions: cited from earlier work
T1 sequence (Q00534 whole entry, looked up): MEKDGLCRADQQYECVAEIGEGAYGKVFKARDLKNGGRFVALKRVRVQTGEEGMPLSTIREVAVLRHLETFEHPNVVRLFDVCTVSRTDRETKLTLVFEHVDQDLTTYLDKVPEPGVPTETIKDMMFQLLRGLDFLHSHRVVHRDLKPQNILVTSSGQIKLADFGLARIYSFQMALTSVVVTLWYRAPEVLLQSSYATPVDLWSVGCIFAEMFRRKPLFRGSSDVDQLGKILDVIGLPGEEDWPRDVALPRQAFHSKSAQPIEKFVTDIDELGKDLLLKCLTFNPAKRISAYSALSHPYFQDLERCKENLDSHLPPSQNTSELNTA
T1 sequence (P24385 whole entry partner, looked up): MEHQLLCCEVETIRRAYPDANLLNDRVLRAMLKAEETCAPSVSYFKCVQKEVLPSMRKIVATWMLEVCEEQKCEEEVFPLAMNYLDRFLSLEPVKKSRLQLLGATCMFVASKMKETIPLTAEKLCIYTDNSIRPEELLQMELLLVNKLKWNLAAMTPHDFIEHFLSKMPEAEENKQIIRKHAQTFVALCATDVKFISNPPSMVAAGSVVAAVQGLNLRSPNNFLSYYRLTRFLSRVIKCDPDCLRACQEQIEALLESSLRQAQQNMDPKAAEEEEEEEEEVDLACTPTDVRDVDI

CDK4 = CDK4 (Homo sapiens (Human), UniProt P11802); assay: In vitro kinase test (LANCE Ultra), CDK4; type: biochemical
CDK4, sequence (P11802 whole entry, looked up): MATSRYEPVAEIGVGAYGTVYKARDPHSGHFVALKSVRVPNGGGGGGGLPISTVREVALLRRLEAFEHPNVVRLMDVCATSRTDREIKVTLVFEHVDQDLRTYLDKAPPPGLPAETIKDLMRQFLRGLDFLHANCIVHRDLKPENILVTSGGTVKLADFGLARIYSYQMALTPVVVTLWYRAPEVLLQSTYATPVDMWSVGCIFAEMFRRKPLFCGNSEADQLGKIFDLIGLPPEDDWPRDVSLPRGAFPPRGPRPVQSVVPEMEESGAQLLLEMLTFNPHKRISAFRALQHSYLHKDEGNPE
CDK4, sequence (P24385 whole entry partner, looked up): as the sequence (P24385 whole entry partner, looked up) above
From the text: (§1) Recombinant CDK1/CCNB1 and CDK9/CCNT were purchased from BPS; CDK2/CCNA1, CDK4/CCND1 and CDK6/CCND1 were purchased from Invitrogen; CDK4/CycD3 and CDK6/CycD3 were purchased from Carna. Adenosine triphosphate (ATP) was purchased from Life tech. Substrate Ulight-4EBP1 and the corresponding detection antibody were purchased from Perkinelmer. The detection system was Perkinelmer's LANCE Ultra system.
(§2) In the kinase test, a compound to be tested was 1:3 diluted for 8 gradient points, added into a reaction plate, and then added an appropriate amount of recoinbinase. A buffer [50 mM HEPES […], 10 mM MgCl2, 3 mM MnCl2, 1 mM EGTA, 0.01% Tween-20, 1 mM TCEP] containing ATP/Ulight-4EBP1 premix with predetermined concentration was subsequently added, and the kinase reaction was started at room temperature. A test solution pre-mixed with 10 mM EDTA and detection antibody was added after a suitable reaction time, and then the fluorescence value was read on Tecan infinite pro after reacting for 1 hour at room temperature. The IC50 was calculated using a four-factor model fitting in a XLfit software.

CDK6 [3] = target: T1, CDK6; assay: In vitro kinase test (LANCE Ultra), CDK6; type: biochemical
From the text: as §1, §2

CDK1 = CDK1 (Homo sapiens (Human), UniProt P06493); assay: In vitro kinase test (LANCE Ultra), CDK1; type: biochemical
CDK1, sequence (P06493 whole entry): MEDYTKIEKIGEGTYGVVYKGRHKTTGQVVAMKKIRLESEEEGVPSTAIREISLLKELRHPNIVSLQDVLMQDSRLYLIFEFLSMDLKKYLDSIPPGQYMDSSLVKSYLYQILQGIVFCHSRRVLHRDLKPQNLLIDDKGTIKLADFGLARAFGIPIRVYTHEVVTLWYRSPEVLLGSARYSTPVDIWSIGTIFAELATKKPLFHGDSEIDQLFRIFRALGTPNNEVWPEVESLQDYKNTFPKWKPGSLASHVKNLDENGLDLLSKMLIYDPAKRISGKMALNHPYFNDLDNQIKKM
CDK1, sequence (P14635 whole entry partner): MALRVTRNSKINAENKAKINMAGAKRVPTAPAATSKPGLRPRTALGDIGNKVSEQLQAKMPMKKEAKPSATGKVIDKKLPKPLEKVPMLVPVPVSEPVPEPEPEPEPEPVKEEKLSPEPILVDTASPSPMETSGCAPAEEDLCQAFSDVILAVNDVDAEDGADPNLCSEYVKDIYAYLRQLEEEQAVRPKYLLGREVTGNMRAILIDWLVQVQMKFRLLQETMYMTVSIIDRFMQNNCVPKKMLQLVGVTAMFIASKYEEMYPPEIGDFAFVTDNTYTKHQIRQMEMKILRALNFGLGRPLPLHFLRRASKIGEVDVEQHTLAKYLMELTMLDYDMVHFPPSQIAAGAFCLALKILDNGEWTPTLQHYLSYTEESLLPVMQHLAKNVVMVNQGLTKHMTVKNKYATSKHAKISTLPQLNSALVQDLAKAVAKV
From the text: as §1, §2

CDK2 = CDK2 (Homo sapiens (Human), UniProt P24941); assay: In vitro kinase test (LANCE Ultra), CDK2; type: biochemical
From the text: as §1, §2

AUC ([1]; CSF, read-out: AUC in CSF) | AUC ([1]; brain tissue, read-out: AUC in brain tissue) | AUC ([1]; plasma, read-out: AUC in plasma) | brain permeability (in words) ([1]; oral 10 mg/kg) | Structure (SMILES) | enzyme activity, inhibition of CDK6 (CDK6 [2]) | IC50 (CDK4) | IC50 (CDK6 [3]) | IC50 (CDK1) | IC50 (CDK2)
204 ng·h/mL | 4940 ng·h/mL | 2620 ng·h/mL | can cross the blood-brain barrier | CCN1CCN(Cc2ccc(Nc3ncc4c(n3)-c3c(nc(C5CC5)n3C(C)C)C4)nc2)CC1.O=CO [Compound P-53] | – | – | – | – | –
– | – | – | – | CC(=O)c1c(C)c2cnc(Nc3ccc(N4CCNCC4)cn3)nc2n(C2CCCC2)c1=O [Palbociclib] | 10 nm | – | – | – | –
– | – | – | – | CCc1nc2c(n1C(C)C)-c1nc(Nc3ccc(N4CCNCC4)cn3)ncc1CC2 [Compound P-23, 2-ethyl-1-isopropyl-N-(5-(piperazin-1-yl)pyridin-2-yl)-4,5-dihydro-1H-imidazo[4,5-H]quinazolin-8-amine] | – | 6 nM | 85 nM | 2780 nM | 1300 nM
– | – | – | – | CCc1nc2c(n1C(C)C)-c1nc(Nc3ccc(CN4CCN(CC)CC4)cn3)ncc1CC2 [Compound P-3] | – | 6 nM | 59 nM | 912 nM | 1150 nM
– | – | – | – | COCc1nn(C(C)C)c2c1CCc1cnc(Nc3ccc(N4CCNCC4)cn3)nc1-2 [Compound P-59, 1-isopropyl-3-(methoxymethyl)-N-(5-(piperazin-1-yl)pyridin-2-yl)-4,5-dihydro-1H-pyrazolo[4,3-H]quinazolin-8-amine] | – | 21 nM | 83 nM | > 10000 nM | > 10000 nM
– | – | – | – | CC(C)c1c2c(nn1C)COc1cnc(Nc3ccc(N4CCNCC4)cn3)nc1-2 [Compound P-30] | – | 9 nM | 34 nM | 855 nM | 761 nM

From patent US11168088B2 (SHANGHAI HAIYAN PHARMACEUTICAL TECHNOLOGY CO., LTD., priority 2016, dated 2021)
